From ChEMBL document CHEMBL1139192, “Novel bis(indolyl)maleimide pyridinophanes that are potent, selective inhibitors of glycogen synthase kinase-3” (Bioorg Med Chem Lett, 2007)

What was measured:
Homo sapiens = species: Homo sapiens; assay: Inhibition of human MAPK2 at 1 uM relative to control; values are per cent of control
[1] = biological target: T1, Dual specificity mitogen-activated protein kinase kinase 4 (Mus musculus) (UniProt P47809); assay: Inhibition of mouse MKK4 Met at 1 uM relative to control; values are per cent of control
T1 sequence (whole entry): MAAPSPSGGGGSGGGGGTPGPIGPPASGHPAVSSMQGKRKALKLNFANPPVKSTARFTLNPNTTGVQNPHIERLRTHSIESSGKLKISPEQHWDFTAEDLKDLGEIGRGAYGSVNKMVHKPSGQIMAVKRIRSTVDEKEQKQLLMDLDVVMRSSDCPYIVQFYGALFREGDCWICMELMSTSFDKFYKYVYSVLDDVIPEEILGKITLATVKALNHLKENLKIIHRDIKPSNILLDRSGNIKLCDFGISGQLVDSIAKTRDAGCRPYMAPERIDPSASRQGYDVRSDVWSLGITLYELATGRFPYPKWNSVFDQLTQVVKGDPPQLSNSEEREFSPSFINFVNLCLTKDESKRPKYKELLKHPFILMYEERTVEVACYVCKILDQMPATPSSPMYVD

[2] = biological target: Tyrosine-protein kinase Fes/Fps (Homo sapiens) (UniProt P07332); assay: Inhibition of human Fes at 1 uM relative to control; values are per cent of control
[3] = biological target: Tyrosine-protein kinase SYK (Homo sapiens) (UniProt P43405); assay: Inhibition of human Syk at 1 uM relative to control; values are per cent of control
[4] = biological target: T2, Inhibitor of nuclear factor kappa-B kinase subunit alpha (Homo sapiens) (UniProt O15111); assay: Residual activity of human IKKalpha at 1 uM relative to control
T2 sequence (whole entry): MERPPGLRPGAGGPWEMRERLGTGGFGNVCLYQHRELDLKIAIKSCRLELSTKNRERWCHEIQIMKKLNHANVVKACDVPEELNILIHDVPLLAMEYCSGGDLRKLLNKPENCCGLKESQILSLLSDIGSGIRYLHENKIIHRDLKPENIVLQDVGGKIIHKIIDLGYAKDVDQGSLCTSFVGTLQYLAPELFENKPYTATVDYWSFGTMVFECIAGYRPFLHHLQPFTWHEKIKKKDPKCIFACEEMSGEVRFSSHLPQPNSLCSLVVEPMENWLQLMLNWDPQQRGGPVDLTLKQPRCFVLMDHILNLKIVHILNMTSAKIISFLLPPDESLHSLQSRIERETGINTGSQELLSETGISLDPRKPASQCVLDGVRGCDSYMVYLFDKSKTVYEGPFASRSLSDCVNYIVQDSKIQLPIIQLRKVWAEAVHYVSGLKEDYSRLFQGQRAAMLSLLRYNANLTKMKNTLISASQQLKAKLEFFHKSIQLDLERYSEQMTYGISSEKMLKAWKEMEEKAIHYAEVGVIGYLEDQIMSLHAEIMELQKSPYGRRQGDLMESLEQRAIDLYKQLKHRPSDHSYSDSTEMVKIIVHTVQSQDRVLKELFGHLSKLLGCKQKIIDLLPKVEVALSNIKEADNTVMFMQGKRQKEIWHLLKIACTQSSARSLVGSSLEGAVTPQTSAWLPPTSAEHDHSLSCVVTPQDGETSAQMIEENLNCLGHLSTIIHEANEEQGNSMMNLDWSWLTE

[5] = biological target: Hepatocyte growth factor receptor (Homo sapiens) (UniProt P08581); assay: Inhibition of human Met at 1 uM relative to control; values are per cent of control
[6] = biological target: Tyrosine-protein kinase receptor UFO (Homo sapiens) (UniProt P30530); assay: Residual activity of human Axl at 1 uM relative to control
[7] = biological target: Proto-oncogene tyrosine-protein kinase Src (Homo sapiens) (UniProt P12931); assay: Residual activity of human cSRC at 1 uM relative to control
[8] = biological target: Serine/threonine-protein kinase PAK 2 (Homo sapiens) (UniProt Q13177); assay: Inhibition of human PAK2 at 1 uM relative to control; values are per cent of control
[9] = biological target: Tyrosine-protein kinase ABL1 (Homo sapiens) (UniProt P00519); assay: Residual activity of human Abl kinase at 1 uM relative to control
[10] = biological target: Protein kinase C delta type (Homo sapiens) (UniProt Q05655); assay: Inhibition of human PKCdelta at 1 uM relative to control; values are per cent of control
[11] = biological target: T3, Serine/threonine-protein kinase 3 (Homo sapiens) (UniProt Q13188); assay: Inhibition of human MST2 at 1 uM relative to control; values are per cent of control
T3 sequence (whole entry): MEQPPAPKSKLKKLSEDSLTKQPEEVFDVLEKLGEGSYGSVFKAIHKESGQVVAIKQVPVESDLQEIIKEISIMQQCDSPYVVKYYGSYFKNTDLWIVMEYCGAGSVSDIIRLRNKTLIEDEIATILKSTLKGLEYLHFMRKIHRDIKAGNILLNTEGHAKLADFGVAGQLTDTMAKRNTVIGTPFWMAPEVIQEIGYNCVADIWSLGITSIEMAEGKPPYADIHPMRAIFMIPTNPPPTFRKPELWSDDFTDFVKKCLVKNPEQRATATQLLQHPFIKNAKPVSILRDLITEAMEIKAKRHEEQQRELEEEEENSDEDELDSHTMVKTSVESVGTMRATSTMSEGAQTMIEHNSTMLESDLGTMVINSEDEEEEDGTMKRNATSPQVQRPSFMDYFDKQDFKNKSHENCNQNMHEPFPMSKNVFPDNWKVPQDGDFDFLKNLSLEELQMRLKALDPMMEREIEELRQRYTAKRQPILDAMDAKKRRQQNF

[12] = biological target: Platelet-derived growth factor receptor beta (Homo sapiens) (UniProt P09619); assay: Inhibition of human PDGFRbeta at 1 uM relative to control; values are per cent of control
[13] = biological target: Tyrosine-protein kinase ZAP-70 (Homo sapiens) (UniProt P43403); assay: Residual activity of human ZAP70 kinase at 1 uM relative to control
[14] = biological target: T4, Protein kinase C beta type (Homo sapiens, UniProt P05771); assay: Residual activity of human PKCbeta2 at 1 uM relative to control
Target sequence in this assay (P05771 2-671 limits assumed): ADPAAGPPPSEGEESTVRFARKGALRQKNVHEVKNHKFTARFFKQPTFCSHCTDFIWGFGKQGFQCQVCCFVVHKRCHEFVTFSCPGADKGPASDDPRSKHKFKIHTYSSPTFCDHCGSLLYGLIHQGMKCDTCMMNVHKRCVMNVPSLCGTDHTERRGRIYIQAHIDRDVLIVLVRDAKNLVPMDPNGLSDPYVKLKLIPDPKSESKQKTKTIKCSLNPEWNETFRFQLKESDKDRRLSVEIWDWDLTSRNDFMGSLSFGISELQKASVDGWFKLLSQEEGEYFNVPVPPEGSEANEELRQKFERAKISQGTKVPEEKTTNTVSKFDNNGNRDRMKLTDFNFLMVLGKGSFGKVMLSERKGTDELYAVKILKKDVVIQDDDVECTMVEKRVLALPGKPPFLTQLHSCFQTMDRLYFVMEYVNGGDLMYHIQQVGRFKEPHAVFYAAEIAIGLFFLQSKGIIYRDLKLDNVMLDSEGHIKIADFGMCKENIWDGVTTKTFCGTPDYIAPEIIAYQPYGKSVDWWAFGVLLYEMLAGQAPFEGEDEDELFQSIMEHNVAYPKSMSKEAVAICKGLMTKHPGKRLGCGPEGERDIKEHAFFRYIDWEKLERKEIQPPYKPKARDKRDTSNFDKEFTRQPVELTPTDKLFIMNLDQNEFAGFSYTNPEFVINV

[15] = biological target: Ribosomal protein S6 kinase alpha-2 (Homo sapiens) (UniProt Q15349); assay: Inhibition of human Rsk2 at 1 uM relative to control; values are per cent of control
[16] = biological target: T4, Protein kinase C beta type; assay: Inhibition of human recombinant PKCbeta2
Target sequence in this assay (P05771 whole entry): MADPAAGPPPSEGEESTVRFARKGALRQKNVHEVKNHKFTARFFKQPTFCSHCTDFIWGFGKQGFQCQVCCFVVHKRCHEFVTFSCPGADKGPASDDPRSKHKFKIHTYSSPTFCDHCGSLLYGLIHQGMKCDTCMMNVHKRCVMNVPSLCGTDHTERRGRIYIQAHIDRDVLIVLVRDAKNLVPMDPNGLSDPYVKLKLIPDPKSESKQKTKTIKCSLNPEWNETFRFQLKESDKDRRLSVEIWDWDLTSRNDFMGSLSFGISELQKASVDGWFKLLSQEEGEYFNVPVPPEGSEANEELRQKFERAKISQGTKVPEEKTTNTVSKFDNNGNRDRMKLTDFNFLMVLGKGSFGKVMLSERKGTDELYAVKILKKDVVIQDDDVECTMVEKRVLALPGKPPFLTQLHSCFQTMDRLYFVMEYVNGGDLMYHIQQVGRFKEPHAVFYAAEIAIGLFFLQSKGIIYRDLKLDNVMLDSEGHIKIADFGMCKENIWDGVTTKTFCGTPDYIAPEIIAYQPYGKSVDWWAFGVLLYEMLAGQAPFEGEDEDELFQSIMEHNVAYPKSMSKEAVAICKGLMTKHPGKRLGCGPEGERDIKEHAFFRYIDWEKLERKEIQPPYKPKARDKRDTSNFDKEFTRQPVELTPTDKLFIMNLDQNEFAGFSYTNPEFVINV

Chain of Tyrosine-protein kinase ABL1 (Homo sapiens) (P00519 whole entry): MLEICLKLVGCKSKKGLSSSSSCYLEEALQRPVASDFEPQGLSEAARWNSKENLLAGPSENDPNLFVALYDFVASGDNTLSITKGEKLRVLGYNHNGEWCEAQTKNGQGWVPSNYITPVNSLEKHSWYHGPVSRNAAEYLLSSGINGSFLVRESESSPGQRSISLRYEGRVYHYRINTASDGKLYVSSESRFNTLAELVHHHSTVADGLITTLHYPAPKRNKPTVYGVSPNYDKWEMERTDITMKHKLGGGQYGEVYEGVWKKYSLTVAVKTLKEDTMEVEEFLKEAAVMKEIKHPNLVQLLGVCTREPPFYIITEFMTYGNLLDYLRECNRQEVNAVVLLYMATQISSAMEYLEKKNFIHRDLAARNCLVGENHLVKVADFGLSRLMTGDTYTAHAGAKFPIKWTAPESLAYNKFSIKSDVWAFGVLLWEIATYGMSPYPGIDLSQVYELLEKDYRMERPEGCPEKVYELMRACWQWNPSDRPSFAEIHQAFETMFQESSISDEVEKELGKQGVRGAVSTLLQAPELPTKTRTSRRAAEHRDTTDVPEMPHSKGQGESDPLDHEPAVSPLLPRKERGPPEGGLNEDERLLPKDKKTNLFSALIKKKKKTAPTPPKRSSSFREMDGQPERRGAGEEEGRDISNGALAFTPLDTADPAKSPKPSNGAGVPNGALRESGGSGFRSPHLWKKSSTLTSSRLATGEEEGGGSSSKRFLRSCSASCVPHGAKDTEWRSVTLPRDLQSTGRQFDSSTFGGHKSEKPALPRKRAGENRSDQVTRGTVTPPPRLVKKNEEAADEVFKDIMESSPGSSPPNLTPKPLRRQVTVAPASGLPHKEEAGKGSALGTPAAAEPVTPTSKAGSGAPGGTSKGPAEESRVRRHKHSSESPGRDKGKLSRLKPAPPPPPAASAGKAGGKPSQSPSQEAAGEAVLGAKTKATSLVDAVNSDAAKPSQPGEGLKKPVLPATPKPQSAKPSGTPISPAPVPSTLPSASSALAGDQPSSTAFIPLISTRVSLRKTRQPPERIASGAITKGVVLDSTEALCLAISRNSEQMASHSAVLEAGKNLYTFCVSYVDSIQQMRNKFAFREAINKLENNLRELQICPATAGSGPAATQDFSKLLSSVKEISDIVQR
Chain of Protein kinase C delta type (Homo sapiens) (Q05655 whole entry, looked up): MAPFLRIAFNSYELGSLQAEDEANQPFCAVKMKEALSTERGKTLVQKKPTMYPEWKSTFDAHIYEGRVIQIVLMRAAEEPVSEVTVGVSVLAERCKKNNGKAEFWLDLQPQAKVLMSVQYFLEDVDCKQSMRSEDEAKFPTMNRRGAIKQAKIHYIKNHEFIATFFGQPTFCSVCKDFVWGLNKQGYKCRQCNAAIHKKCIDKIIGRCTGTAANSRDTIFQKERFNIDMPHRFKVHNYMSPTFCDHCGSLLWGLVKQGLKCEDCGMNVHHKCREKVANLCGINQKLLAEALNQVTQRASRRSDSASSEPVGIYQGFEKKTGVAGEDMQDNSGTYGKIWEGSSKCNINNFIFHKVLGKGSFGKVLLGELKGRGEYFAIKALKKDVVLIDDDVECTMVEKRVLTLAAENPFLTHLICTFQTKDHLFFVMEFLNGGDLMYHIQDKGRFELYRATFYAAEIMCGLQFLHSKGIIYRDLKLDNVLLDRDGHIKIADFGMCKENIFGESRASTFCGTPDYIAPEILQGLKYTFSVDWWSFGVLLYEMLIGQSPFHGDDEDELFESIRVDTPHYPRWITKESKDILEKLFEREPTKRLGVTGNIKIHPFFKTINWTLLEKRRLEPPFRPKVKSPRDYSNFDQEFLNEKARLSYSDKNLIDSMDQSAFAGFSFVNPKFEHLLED
Chain of Platelet-derived growth factor receptor beta (Homo sapiens) (P09619 whole entry): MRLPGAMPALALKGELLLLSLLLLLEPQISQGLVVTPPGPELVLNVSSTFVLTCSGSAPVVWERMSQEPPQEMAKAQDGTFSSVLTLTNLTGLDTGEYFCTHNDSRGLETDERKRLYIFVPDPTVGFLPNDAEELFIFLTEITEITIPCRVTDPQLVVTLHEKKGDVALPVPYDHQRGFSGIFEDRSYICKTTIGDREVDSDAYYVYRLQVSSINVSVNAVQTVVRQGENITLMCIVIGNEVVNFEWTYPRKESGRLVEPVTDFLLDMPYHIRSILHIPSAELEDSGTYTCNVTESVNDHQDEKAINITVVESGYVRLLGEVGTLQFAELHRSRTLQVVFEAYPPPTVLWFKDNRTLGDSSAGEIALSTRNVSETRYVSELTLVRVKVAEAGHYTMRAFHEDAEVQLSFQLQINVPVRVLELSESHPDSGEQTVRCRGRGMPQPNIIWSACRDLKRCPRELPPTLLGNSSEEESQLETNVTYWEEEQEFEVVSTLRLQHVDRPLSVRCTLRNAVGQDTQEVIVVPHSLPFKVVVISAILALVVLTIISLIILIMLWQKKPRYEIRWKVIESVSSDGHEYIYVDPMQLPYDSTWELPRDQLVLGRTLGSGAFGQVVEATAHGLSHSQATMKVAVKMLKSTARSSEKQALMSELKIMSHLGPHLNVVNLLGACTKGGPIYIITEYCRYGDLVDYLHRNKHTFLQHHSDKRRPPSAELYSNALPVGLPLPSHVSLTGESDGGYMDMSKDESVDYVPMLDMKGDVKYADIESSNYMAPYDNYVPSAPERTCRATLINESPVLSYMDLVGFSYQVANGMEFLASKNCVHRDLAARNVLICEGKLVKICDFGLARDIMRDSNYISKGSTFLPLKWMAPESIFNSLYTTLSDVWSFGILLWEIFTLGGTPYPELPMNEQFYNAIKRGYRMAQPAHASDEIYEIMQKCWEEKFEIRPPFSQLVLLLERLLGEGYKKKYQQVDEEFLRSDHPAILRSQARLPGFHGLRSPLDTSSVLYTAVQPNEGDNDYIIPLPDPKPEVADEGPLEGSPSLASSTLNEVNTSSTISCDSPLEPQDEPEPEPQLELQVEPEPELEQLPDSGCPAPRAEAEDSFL
Chain of Serine/threonine-protein kinase PAK 2 (Homo sapiens) (Q13177 whole entry): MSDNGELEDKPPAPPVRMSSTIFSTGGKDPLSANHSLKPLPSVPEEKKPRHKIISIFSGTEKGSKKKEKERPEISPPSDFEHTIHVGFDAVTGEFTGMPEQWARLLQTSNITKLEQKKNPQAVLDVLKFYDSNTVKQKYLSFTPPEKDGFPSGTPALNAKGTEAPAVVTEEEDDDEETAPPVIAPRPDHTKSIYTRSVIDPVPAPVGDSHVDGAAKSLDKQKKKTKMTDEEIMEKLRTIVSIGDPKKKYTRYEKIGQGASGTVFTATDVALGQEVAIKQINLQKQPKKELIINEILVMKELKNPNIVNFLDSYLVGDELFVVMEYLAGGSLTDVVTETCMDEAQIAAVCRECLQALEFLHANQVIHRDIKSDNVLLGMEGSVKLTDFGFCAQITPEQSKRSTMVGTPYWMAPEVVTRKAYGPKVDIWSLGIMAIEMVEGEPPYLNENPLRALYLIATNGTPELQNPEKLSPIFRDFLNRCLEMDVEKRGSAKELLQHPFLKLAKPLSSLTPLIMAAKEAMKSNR

| Compound | residual activity (Homo sapiens) [%] | residual activity [1] [%] | residual activity [2] [%] | residual activity [3] [%] | residual activity [4] [%] | residual activity [5] [%] | residual activity [6] [%] | residual activity [7] [%] | residual activity [8] [%] | residual activity [9] [%] | residual activity [10] [%] | residual activity [11] [%] | residual activity [12] [%] | residual activity [13] [%] | residual activity [14] [%] | residual activity [15] [%] | IC50 [16] [µM] |
| --- | --- | --- | --- | --- | --- | --- | --- | --- | --- | --- | --- | --- | --- | --- | --- | --- | --- |
| CN(C)c1nc2ccc1CCCn1cc(c3ccccc31)C1=C(C(=O)NC1=O)c1cn(c3ccccc13)CC2 | 102 | 130 | 107 | 86 | 92 | 121 | 97 | 81 | 93 | 105 | 73 | 103 | 147 | 113 | 64 | 32 | 1.4 |
| CN(C)c1cc2cc(n1)CCCn1cc(c3ccccc31)C1=C(C(=O)NC1=O)c1cn(c3ccccc13)CCC2 | 104 | 119 | 133 | 101 | 133 | 132 | 104 | 105 | 103 | 98 | 100 | 84 | 101 | 103 | 68 | 10 | 2.4 |
| O=C1NC(=O)C2=C1c1cn(c3ccccc13)CCCc1ccc(c(N3CCCC3)n1)CCCn1cc2c2ccccc21 | 88 | 113 | 130 | 109 | 121 | 132 | 100 | 113 | 102 | 108 | 91 | 86 | 105 | 121 | 77 | 63 | 2.2 |
| O=C1NC(=O)C2=C1c1cn(c3ccccc13)CCCc1cc(nc(N3CCCC3)c1)CCCn1cc2c2ccccc21 | 92 | 119 | 139 | 105 | 132 | 129 | 106 | 97 | 100 | 107 | 104 | 100 | 103 | 115 | 74 | 12 | 1.2 |
